According to US9060515B2, “Heterocyclic urea compounds” (BIOTA EUROPE LTD, priority 2011, dated 2015):
In brackets after ≈: the same amount, converted by molar mass.

Key:
Type in all cases: cell-based
S. pyogenes (ATCC 51339) = assay: Antibacterial susceptibility testing (MIC, broth microdilution or agar dilution), S. pyogenes; settings: Streptococcus pyogenes, ATCC51339; read-out: S. pyogenes (ATCC 51339) minimal inhibitory concentration (MIC)
Outline: (§1)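 MICs by CLSI (M7-A7) broth microdilution or agar dilution, against reference ATCC strains as listed.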

E. faecalis (ATCC 29212) = assay: Antibacterial susceptibility testing (MIC, broth microdilution or agar dilution), E. faecalis; settings: Enterococcus faecalis, ATCC29212; read-out: E. faecalis (ATCC 29212) minimal inhibitory concentration (MIC)
Protocol: (§2) Compounds of the invention were tested for antimicrobial activity by susceptibility testing in liquid or on solid media. MICs for compounds against each strain were determined by the broth microdilution or agar dilution method according to the guidelines of the Clinical Laboratories and Standards Institute, formerly the National Committee for Clinical Laboratory Standards (Clinical Laboratories and Standards Institute. Methods for Dilution Antimicrobial Susceptibility Tests for Bacteria That Grow Aerobically; Approved Standard—Seventh Edition. Document M7-A7. CLSI, Wayne, Pa., 2006; Clinical Laboratories and Standards Institute. The Gram positive bacterial strains tested include S. aureus (Staphylococcus aureus (Isolate ID ATCC 29213)), E. faecalis (Enterococcus faecalis (Isolate ID ATCC 29212)) and S. pyogenes (Streptococcus pyogenes (Isolate ID ATCC 51339)). The Gram negative bacterial strains tested include H. influenzae (Haemophilus influenzae (Isolate ID ATCC 49247)).

S. aureus (ATCC 29213) = assay: Antibacterial susceptibility testing (MIC, broth microdilution or agar dilution), S. aureus; settings: Staphylococcus aureus, ATCC29213; read-out: S. aureus (ATCC 29213) minimal inhibitory concentration (MIC)
Outline: as §1

[1] = tested on: H. influenzae (ATCC 49247); assay: Antibacterial susceptibility testing (MIC, broth microdilution or agar dilution), H. influenzae; settings: Haemophilus influenzae, ATCC49247; read-out: H. influenzae (ATCC 49247) minimal inhibitory concentration (MIC)
Protocol: as §2

Compound: CCNC(=O)Nc1cc(Nc2ccccc2)c(C(=O)Nc2ccccc2)cn1 [Compound 17, 6-(3-ethylureido)-N-phenyl-4-(phenylamino)nicotinamide]
- MIC (S. pyogenes (ATCC 51339)): 2 µg/mL (≈ 5.33 µM)
- MIC (E. faecalis (ATCC 29212)): ≤ 1 µg/mL
- MIC (S. aureus (ATCC 29213)): ≤ 1 µg/mL

Compound: CCNC(=O)Nc1cc(Nc2ccccc2F)c(C(=O)Nc2ccc(CC(C)(C)C(=O)O)cc2)cn1 [Compound 182, 3-{4-[({6-[(ethylcarbamoyl)amino]-4-[(2-fluorophenyl)amino]pyridin-3-yl}carbonyl)amino]phenyl}-2,2-dimethylpropanoic acid]
- MIC [1]: 4 µg/mL (≈ 8.1 µM)
- MIC (S. aureus (ATCC 29213)): ≤ 1 µg/mL

Compound: CCNC(=O)Nc1cc(Nc2ccccc2)c(C(=O)Nc2cccnc2)cn1 [Compound 20, 6-(3-ethylureido)-4-(phenylamino)-N-(pyridin-3-yl)nicotinamide]
- MIC (S. pyogenes (ATCC 51339)): ≤ 1 µg/mL
- MIC (E. faecalis (ATCC 29212)): ≤ 1 µg/mL
- MIC (S. aureus (ATCC 29213)): ≤ 1 µg/mL

Compound: CCNC(=O)Nc1cc(Nc2ccc(F)c(OC)c2)c(C(=O)Nc2ccc(CC(C)(C)C(=O)O)cc2)cn1 [Compound 184, 3-{4-[({6-[(ethylcarbamoyl)amino]-4-[(4-fluoro-3-methoxyphenyl)amino]pyridin-3-yl}carbonyl)amino]phenyl}-2,2-dimethylpropanoic acid]
- MIC [1]: 4 µg/mL (≈ 7.64 µM)
- MIC (S. aureus (ATCC 29213)): ≤ 1 µg/mL

Compound: CCNC(=O)Nc1cc(Nc2ccc(Cl)cc2)c(C(=O)Nc2ccc(CCC(=O)O)cc2)cn1 [Compound 149, 3-{4-[({4-[(4-chlorophenyl)amino]-6-[(ethylcarbamoyl)amino]pyridin-3-yl}carbonyl)amino]phenyl}propanoic acid]
- MIC [1]: 4 µg/mL (≈ 8.3 µM)
- MIC (S. aureus (ATCC 29213)): ≤ 1 µg/mL

Compound: CCNC(=O)Nc1cc(Nc2ccccc2)c(C(=O)Nc2ccc(CCC(=O)OC)nc2)cn1 [Compound 179, methyl 3-{5-[({6-[(ethylcarbamoyl)amino]-4-(phenylamino)pyridin-3-yl}carbonyl)amino]pyridin-2-yl}propanoate]
- MIC [1]: 8 µg/mL (≈ 17.3 µM)
- MIC (S. aureus (ATCC 29213)): ≤ 1 µg/mL

Compound: CCNC(=O)Nc1cc(Nc2ccc(OC)c(F)c2)c(C(=O)Nc2ccc(CC(C)(C)C(=O)O)cc2)cn1 [Compound 190, 3-{4-[({6-[(ethylcarbamoyl)amino]-4-[(3-fluoro-4-methoxyphenyl)amino]pyridin-3-yl}carbonyl)amino]phenyl}-2,2-dimethylpropanoic acid]
- MIC [1]: 2 µg/mL (≈ 3.82 µM)
- MIC (S. aureus (ATCC 29213)): ≤ 1 µg/mL

Compound: CCNC(=O)Nc1cc(Nc2ccccc2)c(C(=O)Nc2ccc(CCC(=O)O)nc2)cn1 [Compound 166, 3-{5-[({6-[(ethylcarbamoyl)amino]-4-(phenylamino)pyridin-3-yl}carbonyl)amino]pyridin-2-yl}propanoic acid]
- MIC [1]: 8 µg/mL (≈ 17.8 µM)
- MIC (S. aureus (ATCC 29213)): 16 µg/mL (≈ 35.7 µM)

Compound: CCNC(=O)Nc1cc(Nc2ccccc2)c(C(=O)Nc2ccc([C@@H]3C[C@H]3C(=O)O)cc2)cn1 [Compound 169]
- MIC [1]: 2 µg/mL (≈ 4.35 µM)
- MIC (S. aureus (ATCC 29213)): 2 µg/mL (≈ 4.35 µM)

Compound: CCNC(=O)Nc1cc(Nc2ccccc2)c(C(=O)Nc2ccc(NC(C)=O)nc2)cn1 [Compound 24, N-(6-acetamidopyridin-3-yl)-6-(3-ethylureido)-4-(phenylamino)nicotinamide]
- MIC (S. pyogenes (ATCC 51339)): ≤ 1 µg/mL
- MIC (E. faecalis (ATCC 29212)): ≤ 1 µg/mL
- MIC (S. aureus (ATCC 29213)): 2 µg/mL (≈ 4.61 µM)

Compound: CCNC(=O)Nc1cc(Nc2cccnc2)c(C(=O)Nc2ccccc2)cn1 [Compound 13, 6-(3-ethylureido)-N-phenyl-4-(pyridin-3-ylamino)nicotinamide]
- MIC (S. pyogenes (ATCC 51339)): ≤ 1 µg/mL
- MIC (E. faecalis (ATCC 29212)): ≤ 1 µg/mL
- MIC (S. aureus (ATCC 29213)): ≤ 1 µg/mL

Compound: CCNC(=O)Nc1cc(Nc2cccc(C)c2)c(C(=O)Nc2cccc(C)c2)cn1 [Compound 1, 6-(3-ethylureido)-N-m-tolyl-4-(m-tolylamino)nicotinamide]
- MIC (S. pyogenes (ATCC 51339)): 16 µg/mL (≈ 39.7 µM)
- MIC (E. faecalis (ATCC 29212)): ≤ 1 µg/mL
- MIC (S. aureus (ATCC 29213)): 2 µg/mL (≈ 4.96 µM)

Compound: CCNC(=O)Nc1cc(Nc2ccccc2)c(C(=O)NCc2cccnc2)cn1 [Compound 28, 6-(3-ethylureido)-4-(phenylamino)-N-(pyridin-3-ylmethyl)nicotinamide]
- MIC (S. pyogenes (ATCC 51339)): ≤ 1 µg/mL
- MIC (E. faecalis (ATCC 29212)): ≤ 1 µg/mL

Compound: CCNC(=O)Nc1cc(Nc2cc(F)cc(F)c2)c(C(=O)Nc2ccc(CCc3nnn[nH]3)cc2)cn1 [Compound 161, 4-(3,5-difluoroanilino)-6-(ethylcarbamoylamino)-N-[4-[2-(1H-tetrazol-5-yl)ethyl]phenyl]pyridine-3-carboxamide]
- MIC [1]: 8 µg/mL (≈ 15.8 µM)
- MIC (S. aureus (ATCC 29213)): ≤ 1 µg/mL

Compound: CCNC(=O)Nc1cc(Nc2ccccc2)c(C(=O)Nc2cccc(C)c2)cn1 [Compound 18, 6-(3-ethylureido)-4-(phenylamino)-N-m-tolylnicotinamide]
- MIC (S. pyogenes (ATCC 51339)): 2 µg/mL (≈ 5.14 µM)
- MIC (E. faecalis (ATCC 29212)): ≤ 1 µg/mL
- MIC (S. aureus (ATCC 29213)): ≤ 1 µg/mL

Compound: CCNC(=O)Nc1cc(Nc2ccc(Cl)cc2)c(C(=O)Nc2ccc(CC(C)(C)C(=O)O)cc2)cn1 [Compound 160, 3-{4-[({4-[(4-chlorophenyl)amino]-6-[(ethylcarbamoyl)amino]pyridin-3-yl}carbonyl)amino]phenyl}-2,2-dimethylpropanoic acid]
- MIC [1]: 8 µg/mL (≈ 15.7 µM)
- MIC (S. aureus (ATCC 29213)): ≤ 1 µg/mL

Compound: CCNC(=O)Nc1cc(Nc2ccccc2)c(C(=O)Nc2ccc(N3CCOCC3)nc2)cn1 [Compound 23, 6-(3-ethylureido)-N-(6-morpholinopyridin-3-yl)-4-(phenylamino)nicotinamide]
- MIC (S. pyogenes (ATCC 51339)): ≤ 1 µg/mL
- MIC (E. faecalis (ATCC 29212)): ≤ 1 µg/mL
- MIC (S. aureus (ATCC 29213)): 2 µg/mL (≈ 4.33 µM)

Compound: CCNC(=O)Nc1cc(Nc2ccc(C(F)(F)F)cc2)c(C(=O)Nc2ccc(CCC(=O)O)cc2)cn1 [Compound 176, 3-[4-[[6-(ethylcarbamoylamino)-4-[4-(trifluoromethyl)anilino]pyridine-3-carbonyl]amino]phenyl]propanoic acid]
- MIC [1]: 4 µg/mL (≈ 7.76 µM)
- MIC (S. aureus (ATCC 29213)): ≤ 1 µg/mL

Compound: CCNC(=O)Nc1cc(Nc2ccccc2Cl)c(C(=O)Nc2ccc(CC(C)(C)C(=O)O)cc2)cn1 [Compound 183, 3-{4-[({4-[(2-chlorophenyl)amino]-6-[(ethylcarbamoyl)amino]pyridin-3-yl}carbonyl)amino]phenyl}-2,2-dimethylpropanoic acid]
- MIC [1]: 4 µg/mL (≈ 7.84 µM)
- MIC (S. aureus (ATCC 29213)): ≤ 1 µg/mL

Compound: CCNC(=O)Nc1cc(Nc2cccnc2)c(C(=O)Nc2ccc(CC(C)(C)C(=O)O)cc2)cn1 [Compound 171, 3-{4-[({6-[(ethylcarbamoyl)amino]-4-(pyridin-3-ylamino)pyridin-3-yl}carbonyl)amino]phenyl}-2,2-dimethylpropanoic acid]
- MIC [1]: 4 µg/mL (≈ 8.39 µM)
- MIC (S. aureus (ATCC 29213)): 4 µg/mL (≈ 8.39 µM)

Compound: CCNC(=O)Nc1cc(Nc2ccnc(OC)c2)c(C(=O)Nc2cccnc2)cn1 [Compound 163]
- MIC [1]: 8 µg/mL (≈ 19.6 µM)
- MIC (S. aureus (ATCC 29213)): ≤ 1 µg/mL

Compound: CCNC(=O)Nc1cc(Nc2cccc(OC)c2)c(C(=O)Nc2ccc(CC(C)(C)C(=O)O)cc2)cn1 [Compound 178, 3-{4-[({6-[(ethylcarbamoyl)amino]-4-[(3-methoxyphenyl)amino]pyridin-3-yl}carbonyl)amino]phenyl}-2,2-dimethylpropanoic acid]
- MIC [1]: 4 µg/mL (≈ 7.91 µM)
- MIC (S. aureus (ATCC 29213)): ≤ 1 µg/mL

Compound: CCNC(=O)Nc1cc(Nc2ccccc2)c(C(=O)Nc2ccc(/C=C/C(=O)O)cc2)cn1 [Compound 137, (2E)-3-{4-[({6-[(ethylcarbamoyl)amino]-4-(phenylamino)pyridin-3-yl}carbonyl)amino]phenyl}prop-2-enoic acid]
- MIC [1]: 4 µg/mL (≈ 8.98 µM)
- MIC (S. aureus (ATCC 29213)): 2 µg/mL (≈ 4.49 µM)

Compound: CCNC(=O)Nc1cc(Nc2cccnc2)c(C(=O)Nc2cccnc2)cn1 [Compound 19, 6-(3-ethylureido)-N-(pyridin-3-yl)-4-(pyridin-3-ylamino)nicotinamide]
- MIC (S. pyogenes (ATCC 51339)): ≤ 1 µg/mL
- MIC (E. faecalis (ATCC 29212)): ≤ 1 µg/mL
- MIC (S. aureus (ATCC 29213)): 8 µg/mL (≈ 21.2 µM)

Compound: CCNC(=O)Nc1cc(Nc2ccccc2)c(C(=O)Nc2cnc(NCC3(C(=O)O)CCC3)nc2)cn1 [Compound 168, 1-[({5-[({6-[(ethylcarbamoyl)amino]-4-(phenylamino)pyridin-3-yl}carbonyl)amino]pyrimidin-2-yl}amino)methyl] cyclobutanecarboxylic acid]
- MIC [1]: 8 µg/mL (≈ 15.9 µM)
- MIC (S. aureus (ATCC 29213)): 2 µg/mL (≈ 3.96 µM)

Compound: CCNC(=O)Nc1cc(Nc2ccccc2)c(C(=O)Nc2ccc(CN3CCS(=O)(=O)CC3)cc2)cn1 [Compound 214, N-{4-[(1,1-dioxidothiomorpholin-4-yl)methyl]phenyl}-6-[(ethylcarbamoyl)amino]-4-(phenylamino)pyridine-3-carboxamide]
- MIC (E. faecalis (ATCC 29212)): ≤ 1 µg/mL
- MIC (S. aureus (ATCC 29213)): 4 µg/mL (≈ 7.65 µM)

Compound: CCNC(=O)Nc1cc(Nc2ccccc2)c(C(=O)Nc2cccc(Cl)c2)cn1 [Compound 4]
- MIC (S. pyogenes (ATCC 51339)): 4 µg/mL (≈ 9.76 µM)
- MIC (E. faecalis (ATCC 29212)): ≤ 1 µg/mL
- MIC (S. aureus (ATCC 29213)): ≤ 1 µg/mL

Compound: CCNC(=O)Nc1cc(Nc2ccc(F)c(Cl)c2)c(C(=O)Nc2ccc(CCC(=O)OCC)cc2)cn1 [Compound 226, ethyl 3-{4-[({4-[(3-chloro-4-fluorophenyl)amino]-6-[(ethylcarbamoyl)amino]pyridin-3-yl}carbonyl)amino]phenyl}propanoate]
- MIC (E. faecalis (ATCC 29212)): ≤ 1 µg/mL
- MIC (S. aureus (ATCC 29213)): 2 µg/mL (≈ 3.79 µM)

Compound: CCNC(=O)Nc1cc(NCc2cccnc2)c(C(=O)Nc2cccnc2)cn1 [Compound 26, 6-(3-ethylureido)-N-(pyridin-3-yl)-4-(pyridin-3-ylmethylamino)nicotinamide]
- MIC (S. pyogenes (ATCC 51339)): 8 µg/mL (≈ 20.4 µM)
- MIC (E. faecalis (ATCC 29212)): 8 µg/mL (≈ 20.4 µM)

Compound: CCNC(=O)Nc1cc(Nc2ccccc2)c(C(=O)Nc2ccc([C@@H]3C[C@H]3C(=O)OCC)cc2)cn1 [Compound 180]
- MIC [1]: 2 µg/mL (≈ 4.1 µM)

Compound: CCNC(=O)Nc1cc(NCc2cccnc2)c(C(=O)Nc2ccccc2)cn1 [Compound 25, 6-(3-ethylureido)-N-phenyl-4-(pyridin-3-ylmethylamino)nicotinamide]
- MIC (S. pyogenes (ATCC 51339)): 8 µg/mL (≈ 20.5 µM)
- MIC (E. faecalis (ATCC 29212)): 2 µg/mL (≈ 5.12 µM)
